From patent publication US4324801A, “Phenylguanidine acetylsalicylate compounds, process for production thereof, and pharmaceutical composition thereof” (Banyu Pharmaceutical Co. Ltd., priority 1981, dated 1982)
In brackets after ≈: the same amount, converted by molar mass. Read-outs that look alike come from different tables or passages of the source.

Columns and labels:
mice [1] = conditions: oral
guinea pigs = test: Anti-inflammatory activity (ultraviolet irradiation on the back of guinea pigs); type: in vivo, guinea pig (male)
Text: Male guinea pigs having a body weight of about 350 g were used. The back hair of each guinea pig was removed, and ultraviolet light was irradiated onto the back.

prostaglandin synthesis = test: Inhibition of prostaglandin synthesis in washed platelet suspension (malondialdehyde formation after arachidonic acid); type: cell-based; conditions: in vitro; for IC50: read-out: IC50 (final concentration at 50% inhibition of malondialdehyde formation)
Description: Each of the compounds shown in Table 1 was tested to measure the inhibition of prostaglandin synthesis in a washed platelet suspension by measuring the malondialdehyde formation following the addition of arachidonic acid in vitro.

[2] = tested on: platelet aggregation in rabbit's platelet-rich plasma (PRP); test: cells; type: cell-based; conditions: collagen as aggregation inducer; for IC50: Oryctolagus cuniculus, Platelet, read-out: IC50 (final concentration at 50% inhibition of platelet aggregation)
Description: This was measured by the method of Born et al. Specifically, using collagen as an aggregation inducer, each of the compounds shown in Table 1 was tested to measure the inhibition of platelet aggregation in rabbit's platelet-rich plasma (PRP). Aspirin and mefenamic acid were used as controls.
^(*) Final concentration at 50% inhibition of platelet aggregation.

rats = test: Antipyretic activity (peptone-induced rise in rectal temperature); type: in vivo, rat (male); conditions: against the control, oral, 200 mg/kg, rat; 5% peponte s.c. (0.5 ml/100 g)
Description: Male rats having a body weight of 200 to 250 g were used.
^(*) Inhibiting ratio against the control in oral administration at a

mice [3] = test: Analgesic activity (acetic acid writhing method); type: in vivo, mouse (male); conditions: oral, intravenous, intraperitoneal, compared against aspirin and mefenamic acid, writhings counted 5 to 25 minutes after acetic acid
Description: The analgesic activity was tested by the acetic acid writhing method. Male mice having a body weight of 18 to 20 g were used. Each of the compounds shown in Table 1 was administered orally, intravenously and intraperitoneally, and then 0.2 ml of a 0.7% aqueous solution of acetic acid was administered intraperitoneally 60 minutes (in oral administration), 10 minutes (in intravenous administration), and 15 minutes (in intraperitoneal administration) after the administration of the test compounds.

in vivo = conditions: mouse, po
[4] = oral, one hour before UV irradiation, guinea pigs

Row | Molecule | LD50 (mice [1]) | ED50 (guinea pigs; [4]) | IC50 (final concentration at 50% inhibition of malondialdehyde formation) (prostaglandin synthesis) | IC50 (final concentration at 50% inhibition of platelet aggregation) [2] | Inhibiting ratio (rats) | ED50 (guinea pigs; Cavia porcellus, light or radiation study, 1 h, oral, one hour before UV irradiation, guinea pigs, read-out: ED50) | IC50 (prostaglandin synthesis) | IC50 [2] | analgesic activity (mice [3]) | ED50 (guinea pigs; Cavia porcellus, light or radiation study, po, 1 h) | LD50 (in vivo)
1 | 3-Hydroxy-4-carboethoxyphenylguanidine acetylsalicylate [Compound 17] | 1100 mg/kg |  |  |  |  |  |  |  |  |  | 
2 | CC(=O)Oc1ccccc1C(=O)O.N=C(N)Nc1ccccc1 [Compound 1] | 400 mg/kg | 140 mg/kg | 4.3 µg/mL | 6.0 µg/mL | 74.1% |  |  |  |  |  | 
3 | Cc1cccc(Nc2ccccc2C(=O)O)c1C [Mefenamic acid, reference compound] |  |  |  |  |  | 30 mg/kg | 1.4 µg/mL (≈ 5.8 µM) | > 20 µg/mL |  |  | 
4 | 3,4-dimethylphenylguanidine acetylsalicylate [Compound 5] |  | 85 mg/kg | 4.8 µg/mL | 2.0 µg/mL |  |  |  |  | a marked analgesic activity |  | 
5 | 2-methylphenylguanidine acetylsalicylate [Compound 2] | 400 mg/kg | 65 mg/kg | 3.4 µg/mL | 10.5 µg/mL | 88.1% |  |  |  |  |  | 
6 | 4-methylphenylguanidine acetylsalicylate [Compound 4] | 600 mg/kg | 90 mg/kg | 2.4 µg/mL | 4.5 µg/mL | 83.9% |  |  |  |  |  | 
7 | CC(=O)Oc1ccccc1C(=O)O [Aspirin, acetylsalicylic acid, reference compound] |  |  |  |  | 81.0% |  | 2.4 µg/mL (≈ 13.3 µM) | 12.6 µg/mL (≈ 69.9 µM) |  | 90 mg/kg | 950 mg/kg
8 | 4-ethoxyphenylguanidine acetylsalicylate [Compound 13] | 600 mg/kg | 85 mg/kg | 4.0 µg/mL | 12.2 µg/mL | 62.9% |  |  |  |  |  | 
9 | 4-Methoxyphenylguanidine acetylsalicylate [Compound 11] | 300 mg/kg | 95 mg/kg | 3.3 µg/mL | 9.6 µg/mL | 25.2% |  |  |  |  |  | 
10 | 3-methylphenylguanidine acetylsalicylate [Compound 3] | 400 mg/kg | 110 mg/kg | 3.7 µg/mL | 7.0 µg/mL | 28.0% |  |  |  |  |  | 
11 | 4-Carbamoylphenylguanidine acetylsalicylate [Compound 16] | 1600 mg/kg | 200 mg/kg | 4.5 µg/mL | 12.5 µg/mL | 72.0% |  |  |  |  |  | 
